Experimental data as given in patent US20240343699A1, “DERIVATIVES OF SUBSTITUTED MORPHOLINES AND USES THEREOF” (Supernus Pharmaceuticals, Inc., priority 2023, published 2024).
Structures can show the parent of a compound that is named as a salt.

Experiments:
recognition memory [1] = assay: Novel object recognition, scopolamine-impairment model, 3 hr retention interval
recognition memory [2] = assay: Spontaneous novel object recognition (NOR), 48 hr retention interval; assay type: in vivo, male Wistar rats; conditions: donepezil 2.0 mg/kg i.p., 48 hr delay
cognitive flexibility = assay: Operant set-shifting test against PCP; assay type: in vivo, male Wistar rats
Experimental: This assay serves as a model of impaired executive function associated with neuropsychiatric disorders like schizophrenia. The aim of this study was to evaluate COMPOUND C to reverse deficits observed with PCP on cognitive flexibility using the operant set-shifting test in the rat.
Substances & Formulation.
Doses were prepared by separate weighing (W/V). COMPOUND C formulations were prepared fresh on each dosing day and dosing was completed within 8 hours of formulation. Phencyclidine (PCP) hydrochloride, white powder, was dissolved in physiological saline by magnetic stirring, fresh each day of dosing.
Test System. 78 male Wistar rats were supplied for this study. • 72 rats, 8-9 weeks old, weighing 218-299 g at the beginning of the visual discrimination were submitted to the entire behavioral testing and assigned to match groups based on their performance during the second visual discrimination session. • 6 spare rats were submitted to lever pressing, side bias and visual discrimination but were discarded for the testing period (set-shift and reversal)
The experimental protocol which detects effects on behavioral flexibility follows that described by Floresco et al. (Behav. Brain Res., 190, 85-96 (2008)).
Apparatus. The apparatus consists of standard Med Associates ENV-008 Skinner boxes (30×25×30 cm) fitted with a house light, two retractable levers and a food pellet dispenser. The levers are located on either side of the food receptacle connected to the pellet dispenser. A light emitting diode stimulus light is positioned centrally above each lever and served as a stimulus for visual-cue discrimination learning.
Acquisition of lever-pressing (training). The aim of this phase was to train animals to lever-press to receive a food pellet reward.
Side bias. On the last day of training, the side bias for the rat was determined. The session was similar to the lever pressing session except that both levers were inserted into the chamber together (i.e. 90 levers presentations every 20 seconds). Again, the stimulus lights above each of the levers were not illuminated during this training session. On the first levers presentation, a food pellet was delivered after responding on either lever. Upon subsequent insertion of the levers, food was delivered only if the rat responded on the lever opposite to the one chosen initially. If the rat chose the same lever to the initial choice, no food was delivered. This continued until the rat chose the lever opposite to the one chosen initially. After choosing both levers, a new trial commenced. Thus, one trial for the side bias procedure consisted of responded on both levers. The sessions terminated after 90 levers presentations or after completion of 21 trials.
Visual-cue discrimination learning. After determining the side bias, animals were submitted to visual-cue discrimination learning.
A session began with both levers retracted and the chamber in darkness (the inter-trial state). Every 20 seconds, a trial began with illumination of one of the stimulus lights above one of the levers. 3 seconds later, the house light was illuminated, and both levers were inserted into the chamber. […] After food delivery, the house light remained on for another 4 seconds, after which the chamber returned to the inter-trial state. If the rat responded on the other lever (incorrect response), both levers retracted immediately without food delivery and the chamber reverted to the inter-trial state.

immobility = assay: Tail suspension test (TST); conditions: imipramine 15 mg/kg IP, vs vehicle (p=0.01)
Experimental: The tail suspension test is an experimental method used in scientific research to measure a state of being helpless in rodents, especially in mice. It is based on the observation that if a mouse is subjected to short term inescapable stress then the mouse will stop struggling. Immobility is quantified by measuring the amount of time lacking whole body activity.
The immobilized time in the last 4 min of the TST, which indicated depression-like behavior, was quantified using offline video manual scoring in a blinded manner.
Animals. Adult (7 to 8 weeks) male mice (C57Bl/6, Charles River Laboratories) were used in the study. Upon arrival, animals were group-housed (5/cage) with access to food and water ad libitum. Animals were maintained on a 12/12-hour light/dark cycle in a temperature—(22±2° C.) and humidity—(approx. 50%) controlled room. Animals were numbered consecutively by tail marks. Each cage was identified by a card indicating the study number, sex, animal numbers and date of birth.
Test article formulations were prepared fresh based on weight-to-volume in the vehicle on each dosing day. […] The appearance of the formulations was clear, with no precipitations. […] A vehicle group was included for comparison.
Monitoring. A piezoelectric sensor operated by the SmartCage system was utilized and video recording was conducted for scoring. After animals acclimated to the testing room, an individual mouse's tail was placed onto the piezoelectric sensor-board and the mouse was hung upside down, which signaled the immediate start of the recording of struggle activity, and it lasted for 6 min. The mouse was then taken off and returned to the home cage. The immobilized time, indicating depression-like behavior, was quantified using manual scoring of the video recordings for the period from 120 seconds to 360 seconds during TST. The percent immobility time was calculated: (immobility time/240 seconds)*100.
The immobilized time in the last 4 min of the TST, which indicates depression-like behavior, was quantified using offline video manual scoring in a blinded manner.
Animals. Adult (8 weeks, approximately 20-25 g) male mice (C57Bl/6, Vendor: Charles River Laboratories) were used in the study. Upon arrival, animals were group-housed (5/cage) with access to food and water ad libitum. Animals were maintained on a 12/12-hour light/dark cycle in a temperature—(22±2° C.) and humidity—(35-50%) controlled room. Animals were numbered consecutively by tail ID. Each cage was identified by a colored card indicating the study number, sex, animal numbers and date of birth.
Test article formulations were prepared fresh based on weight-to-volume in the vehicle on dosing day. […] The appearance of the formulations was clear, with no precipitations.
The tail suspension test is an experimental method used in scientific research to measure a state of being helpless in rodents, especially in mice. It is based on the observation that if a mouse is subjected to short term inescapable stress then the mice will give up struggling. “Immobility” is quantified by measuring the amount of time during which the animal has no whole-body activity.
Tail Suspension Test (TST). A piezoelectric sensor operated by the SmartCage system was utilized and video recording was conducted for scoring. Once animals were acclimated to the testing room, the TST was initiated by placing the tail of the test mouse onto the piezoelectric sensor-board and hanging the mouse upside down. The recording period was initiated once the mouse was upside down and lasted for 6 min. After the recording period, the mouse was removed from the recording device and returned to its home cage.

rat red blood cells = assay: Hemolysis in rat blood; assay type: cell-based; conditions: rat blood, 60 min exposure; read-out: EC50 (% RBC lysis)
Experimental: Stability of Test Articles at Different pH Values. 10 mM stock solutions of COMPOUND A were prepared in DMSO. From this stock solution, a single concentration in a 10 μL aliquot was added to three fluid matrices: SGF at pH 2.0 (gastric), SIF at pH 6.0 (upper intestine), and PBS at 7.4 (systemic). The final volume was 1 mL (0.1 mM). The preparations were then incubated at 37° C. and samples were collected at 0, 15, 30, 60, and 120 min for analysis of parent material by LC/MS/MS. The collected sample was quenched in acetonitrile/0.1% formic acid mixture. Red Blood Cell (RBC): Human and rat blood were centrifuged to separate out red blood cells at […] for 15 min. The upper plasma level was aspirated with a micropipette and placed in a bleach solution for disposal. The RBC pellet was resuspended in sterile isotonic saline. The pellet was gently resuspended by rocking the tube. The sample was then centrifuged again to collect the RBC pellet and then resuspended and washed one more time following the same procedure. A total of three was done. Following the last wash and centrifugation, the RBCs were resuspended with PBS; and mixed by inversion. Aliquots of the resuspended and washed RBCs were then placed into 4 reaction tubes. These tubes were centrifuged to collect the RBCs. The fluid level was marked on each tube, then the supernatant was aspirated off and the cells resuspended with room temperature PBS pH 7.4 to the original mark. An aliquot of the RBC suspension was added to four sterile tubes containing PBS pH 7.4 at room temperature.
Stability in Human and Rat Red Blood cells and Hemolysis. […] After centrifugation, 70 μL of supernatant (without disturbing the pellet) was transferred to a clean and clear polystyrene flat bottomed 96-well plate and the absorbance of the sample at a single wavelength was measured using a Bio Tech Synergy Hl Plate Reader at a wavelength of 410 nm. […] Stability was measured by measuring loss of parent compound using LC/MS/MS.

[3] = PCP 2 mg/kg s.c., first reversal session
[4] = PCP 2 mg/kg s.c., first set-shift session
[5] = PCP 2 mg/kg s.c., first set-shift to response discrimination session

CN1[C@@H]2C[C@@H](OC(=O)[C@H](CO)c3ccccc3)C[C@H]1[C@@H]1O[C@@H]12 [scopolamine, (−)-scopolamine hydrobromide]
d2 ratios vs vehicle-controls (recognition memory [1]; vehicle-scopolamine 0.2 mg/kg i.p.): significantly impaired compared to the vehicle-controls

Cc1ccc(Sc2ccccc2N2CCNCC2)c(C)c1 [vortioxetine]
memory enhancement (attenuation of the scopolamine impairment) (recognition memory [1]; vortioxetine 10 mg/kg s.c. + scopolamine 0.2 mg/kg i.p., 3 hr delay): not associated with significant memory enhancement
adverse reactions (recognition memory [1]; vortioxetine-scopolamine combination, three of the twelve rats, A/A session): adverse reactions during the A/A session (thigmotaxis, vocalizations, labored breathing)

COc1cc2c(cc1OC)C(=O)C(CC1CCN(Cc3ccccc3)CC1)C2 (stereo not shown) [donepezil, reference compound]
preference for the novel object (exploration times) (recognition memory [2]): significant preference for the novel object

c1ccc(C2(N3CCCCC3)CCCCC2)cc1 [PCP, Phencyclidine (PCP) hydrochloride]
number of errors vs saline controls (cognitive flexibility; [3]): +66%
number of trials to reach the criterion vs saline controls (cognitive flexibility; [3]): +35%
perseverative errors (average) (cognitive flexibility; [4]): 35.8
total errors (average) (cognitive flexibility; [4]): 37.8
number of errors vs saline controls (cognitive flexibility; [5]): +47%
number of trials to reach the criterion vs saline controls (cognitive flexibility; [5]): +45%
number of trials vs saline controls (cognitive flexibility; PCP, second session (drug-free)): +31%

CN(C)CCCN1c2ccccc2CCc2ccccc21 [imipramine, reference compound]
percent immobility time (immobility): significantly reduced immobility time

C[C@@H]1[C@H](O)[C@@H](C)/C=C/C=C/C=C/C=C/C=C/C=C/C=C/[C@H](O[C@@H]2O[C@H](C)[C@@H](O)[C@H](N)[C@@H]2O)C[C@@H]2O[C@](O)(C[C@@H](O)C[C@@H](O)[C@H](O)CC[C@@H](O)C[C@@H](O)CC(=O)O[C@H]1C)C[C@H](O)[C@H]2C(=O)O [amphotericin B, reference compound]
EC50 (rat red blood cells): 4.73 µM
